From patent publication US4863920A, “Imidazodiazepine derivatives for treatment of disorders of the central nervous system” (Hoffmann-La Roche Inc., priority 1987, dated 1989)
pIC50: −log10 of the molar value.

Tests used:
[1] = target: central benzodiazepine receptors (cerebral cortex); experiment: Affinity to benzodiazepine receptors (inhibition of tritiated diazepam binding in cerebral cortex); conditions: inhibition of specific binding of tritiated diazepam, read-out: Affinity to benzodiazepine receptors IC 50
Experimental: The affinity of compounds of formula I to the central benzodiazepine receptors was determined according to the method described in Life Science 20, 2101-2110 (1977) and Science 198, 849-851 (1977). According to this method, the inhibition of the binding of tritiated diazepam at the specific benzodiazepine receptors in the cerebral cortex by the respective test substances is ascertained. The IC50 ("50% inhibiting concentration") is that concentration of the respective test substance which brings about a 50 percent inhibition of the specific binding of the tritiated diazepam at the specific benzodiazepine receptors in the cerebral cortex.

[2] = tested on: diazepam effect in the pentetrazole test; experiment: Antagonism of diazepam in the pentetrazole test; format: in vivo; conditions: Mus musculus, po; mice; diazepam 5 mg/kg i.p. one hour before and compound p.o. 15 minutes before pentetrazole 120 mg/kg i.p.; read-out: Antagonism of diazepam ED 50
Experimental: This property was used to elaborate the test described hereinafter which permits the investigation of compounds capable of antagonizing the central properties of 1,4-benzodiazepines having tranquillizing activity.
(§1) The antagonistic activity of the compounds investigated, that is, their capability to counteract the effect of the diazepam in the pentetrazole test, is determined by counting the mice which suffer spasmodic seizures in this test. The ED50 denotes the amount of the respective test compound in mg/kg (p.o.) which in 50% of the animals counteracts the diazepam effect in the above test.

[3] = Acute toxicity, single oral administration to rats; conditions: rat, in vivo, read-out: Toxicity LD 50
Description: The results which have been obtained with representative members of the class of compound defined by formula I in the experiments described previously are compiled in the following Table. Moreover, the Table contains data concerning the acute toxicity of some of these compounds (LD50 in mg/kg in the case of single oral administration to rats).

[4] = tested on: pentetrazole-induced spasmodic seizures; experiment: Pentetrazole test, protection by diazepam; format: in vivo; conditions: 5 mg/kg (i.p.) diazepam, supramaximal dosage; more than 900 mice
Experimental: as §1

[5] = tested on: pentetrazole-induced spasmodic seizures; experiment: Antipentetrazole test (protection from pentetrazole seizures); format: in vivo; conditions: Rattus norvegicus, po; female rats 60-80 g; p.o. 30 minutes before 120 mg/kg pentetrazole i.p.; 10 animals per dosage; Probit; read-out: Antipemtetrazole test ED 50
Experimental: The central properties of the compounds of formula I in accordance with the invention can be determined, for example, in the antipentetrazole animal model which is described hereinafter and which is generally recognized for recording anticonvulsant properties.
In this animal model, the compound under investigation is administered orally to female rats weighing 60-80 g and 30 minutes later there are administered i.p. 120 mg/kg of pentetrazole, which causes emprosthotonus and tonic stretchings of the fore and/or hind limbs in unprotected experimental animals 1-4 minutes after the injection. Ten experimental animals are used per dosage of test substance. After counting the protected experimental animals the ED50 is determined according to the Probit method. The ED50 is that dosage which protects 50% of the experimental animals from the spasmodic seizures caused by pentetrazole.

Compound	pIC50 [1]	ED50 [2]	LD50 [3]	protection from spasmodic seizures in the pentetrazole test [4]	ED50 [5]
C=Cc1ncn2c1CN(C)C(=O)c1c(Cl)cccc1-2 [F, 7-chloro-4,5-dihydro-5-methyl-3-vinyl-6H-imidazo[1,5-a][1,4]benzodiazepin-6-one]	8.12	1.2 mg/kg	1250 to 2500 mg/kg		
CN1C(=O)CN=C(c2ccccc2)c2cc(Cl)ccc21 [diazepam]				protected all experimental animals from spasmodic seizures	
CC#Cc1ncn2c1CN(C)C(=O)c1c(Cl)cccc1-2 [C, 7-chloro-4,5-dihydro-5-methyl-3-(1-propynyl)-6H-imidazo[1,5-a][1,4]benzodiazepin-6-one]	8.64	0.36 mg/kg	> 5000 mg/kg		
CN1Cc2c(C#CC(C)(C)O)ncn2-c2cccc(Br)c2C1=O [E, 7-bromo-4,5-dihydro-3-(3-hydroxy-3-methyl-1-butynyl)-5-methyl-6H-imidazo[1,5-a][1,4]benzodiazepin-6-one]	8.70		500 to 1000 mg/kg		0.29 mg/kg
C#Cc1ncn2c1CN(C)C(=O)c1cc(F)ccc1-2 [B, 3-ethynyl-8-fluoro-4,5-dihydro-5-methyl-6H-imidazo[1,5-a][1,4]benzodiazepine-6-one]	7.62	1.5 mg/kg	312 to 625 mg/kg		
C#Cc1ncn2c1CN(C)C(=O)c1c(Cl)cccc1-2 [A, 7-chloro-3-ethynyl-4,5-dihydro-5-methyl-6H-imidazo[1,5-a][1,4]benzodiazepin-6-one]	8.35	0.24 mg/kg	312 to 625 mg/kg		
C#Cc1ncn2c1[C@@H]1CCCN1C(=O)c1c(Cl)cccc1-2 [D, (S)-8-chloro-1-ethynyl-11,12,13,13a-tetrahydro-9H-imidazo[1,5-a]pyrrolo[2,1-c][1,4]benzodiazepin-9-one]	8.62	> 50 mg/kg	> 4000 mg/kg		1.5 mg/kg
